{"source": "patent US7550449B2", "about": "“Carba cyclic phosphatidic acid derivative” (priority 2002, dated 2009)", "origin": "cited, not measured here", "key": {"[1]": {"test_system": "Rho", "details": "literature (Mukai et al. 2000)"}, "[2]": {"test_system": "MM1 cells, highly invasive clones of a rat ascites hepatoma cell line (AH-130)", "details": "literature (Mukai et al. 1999)"}, "[3]": {"test_system": "human fibrosarcoma cells (HT-1080)", "details": "cells require neither serum nor LPA for invasion; literature"}, "[4]": {"test_system": "MM1 cells", "details": "within several minutes of addition, effect not lost with LPA, literature"}}}
{"compound": "CCCCCCCCCCCCCCCC(=O)OCC1COP(=O)(O)O1", "note": "(stereo not shown) [Pal-cPA]", "values": [{"measurement": "LPA-mediated Rho activation", "setting": "[1]", "result": "inhibited"}, {"measurement": "invasion suppressing activity among cPA derivatives with different fatty acids at sn-1", "setting": "[2]", "result": "strongest invasion suppressing activity"}, {"measurement": "suppression of invasion of HT-1080 cells", "setting": "[3]", "result": "significantly suppressed"}, {"measurement": "intracellular cAMP concentration", "setting": "[4]", "result": "elevated"}]}
